Data as given in publication PMC6259134, “Synthesis, Antimycobacterial, Antifungal and Photosynthesis-Inhibiting Activity of Chlorinated N-phenylpyrazine-2-carboxamides” (Molecules, 2010).
In brackets after ≈: the same amount, converted by molar mass. Several values for one entry are separate records, joined by “and”; a condition that tells them apart may be missing. Equal entries are not always repeated. Where two headings read alike, the source gives them in different places.

Key:
[1] = system: M. tuberculosis H37Rv; conditions: cited from earlier work
[2] = system: photosynthetic electron transport (PET) in spinach chloroplasts; assay: Inhibition of photosynthetic electron transport (PET) in spinach chloroplasts (DCPIP photoreduction); type: biochemical, Spinacia oleracea L.
Protocol: The activity of the majority of the studied compounds was moderate or low relative to the standard. Chloroplasts were prepared from spinach (Spinacia oleracea L.) according to Masarovičová and Kráľová [26]. […] [27], and the rate of photosynthetic electron transport was monitored as a photoreduction of DCPIP. The measurements were carried out in phosphate buffer (0.02 mol/L, pH 7.2) containing sucrose (0.4 mol/L), MgCl2 (0.005 mol/L) and NaCl (0.015 mol/L). The chlorophyll content was 30 mg/L in these experiments and the samples were irradiated (~100 W/m^2) from 10 cm distance with a halogen lamp (250 W) using a 4 cm water filter to prevent warming of the samples (suspension temperature 22 °C). The studied compounds were dissolved in DMSO due to their limited water solubility. […] The inhibitory efficiency of the studied compounds was manifested by IC50 values, i.e. by molar concentration of the compounds causing 50% decrease in the […] relative to the untreated control.

[3] = set-up: method as in PMID 1151976, doi:10.1002/9780470171912.ch3; conditions: Hammett's constant of R3 phenyl substituent; cited from earlier work
[4] = Lipophilicity determination by RP-HPLC (capacity factor k / log k, distributive π parameters); type: physicochemical; conditions: for log k: RP-HPLC, C18, MeOH 70%/H2O 30%, isocratic; for π determined Ph: distributive parameter of phenyl substituents; for π determined Ph / π determined Pyr: calculated from log k; for π determined Pyr: distributive parameter of pyrazine substituents
Protocol: The procedure was performed under isocratic conditions with methanol as an organic modifier in the mobile phase using an end-capped non-polar C18 stationary RP column. The results are shown in Table 1 and illustrated in Figure 2. Waters Alliance 2695 XE HPLC separation module and Waters Photodiode Array Detector 2996 (Waters Corp., Milford, MA, USA) were used. Waters Symmetry® C18 5 μm, 4.6 ° 250 mm, Part No. WAT054275 (Waters Corp., Milford, MA, USA) chromatographic column was used. The HPLC separation process was monitored by Empower™ 2 Chromatography Data Software, Waters 2009 (Waters Corp., Milford, MA, USA). The mixture of MeOH (HPLC grade, 70%) and H2O (HPLC–Mili-Q Grade, 30%) was used as a mobile phase. The total flow rate of the column was 1.0 mL/min, injection volume 30 μL, column temperature 30 °C and sample temperature 10 °C were used. The detection wavelength of 210 nm was chosen. The KI methanolic solution was used for the dead time (tD) determination. Retention times (tR) were measured in minutes. The capacity factors k were calculated using the Empower™ 2 Chromatography Data Software according to formula k = (tR - tD)/tD, where tR is the retention time of the solute, whereas tD denotes the dead time obtained using an unretained analyte. Log k, calculated from the capacity factor k, is used as the lipophilicity index converted to log P scale. Distributive π parameters characterizing lipophilicity of the individual substituents were calculated according to the formula π = log kS – log kU, where log kS is the determined capacity factor logarithm of the individual substituted compounds, whereas log kU denotes the determined capacity factor logarithm of the unsubstituted compound, it means π = 0.

[5] = system: M. tuberculosis H37Rv (ATCC27294); assay: In vitro antimycobacterial primary screening (TAACF, BACTEC 460 / MABA); type: cell-based; conditions: Mycobacterium tuberculosis, read-out: Antimycobacterial evaluation Inhibition
Protocol: All compounds were assayed in vitro against M. tuberculosis H37Rv. […] None of the tested derivatives overcame this limit, see Table 2.
Antimycobacterial evaluation was carried out in the tuberculosis antimicrobial acquisition and coordinating facility (TAACF), Southern Research Institute, Birmingham, AL, U.S.A., which is a part of the National Institutes of Health (NIH). Primary screening of all compounds was conducted at 6.25 µg/mL against M. tuberculosis H37Rv (ATCC27294) in BACTEC 12B medium using both BACTEC 460 radiometric system and the Microplate Alamar Blue Assay (MABA). For the results see Table 2.

[6] = system: Trichophyton mentagrophytes 445; assay: In vitro antifungal susceptibility testing (microdilution broth method); type: cell-based; conditions: T. mentagrophytes; for MIC: Trichophyton mentagrophytes, 445
[7] = system: photosynthetic electron transport (PET) in spinach chloroplasts; set-up: method as in earlier work; conditions: standard, read-out: PET inhibition IC50; cited from earlier work
[8] = after 72 h, MIC for moulds determined as IC50 value, read-out: Antifungal susceptibility MIC
[9] = after 120 h, MIC for moulds determined as IC50 value, read-out: Antifungal susceptibility MIC

Structure (SMILES) | MIC [1] [µg/mL] | IC50 [2] [µM] | σ [3] | log k [4] | π determined Ph [4] | π determined Pyr [4] | inhibition at 6.25 µg/mL [5] [%] | MIC [6, 8] [µM] | MIC [6, 9] [µM] | MIC ([6]; incubation time not given, read-out: MIC) [µM] | IC50 [7] | Antifungal susceptibility MIC ([6]; after 120 h, MIC for moulds determined as IC50 value) [µM]
CC(C)(C)c1ncc(C(=O)Nc2cccc(C(F)(F)F)c2)nc1Cl [5-tert-butyl-6-chloro-N-(3-trifluoromethylphenyl)pyrazine-2-carboxamide] | 3.13 to 6.25 | – | – | – | – | – | – | – | – | – | – | –
O=C(Nc1cccc(Cl)c1)c1cnccn1 [Compound 1, Pyrazine-2-carboxylic acid (3-chlorophenyl)amide] | – | 290 | 0.373 | 0.4914 | 0.08 | 0.00 | 14 | 500 (≈ 117 µg/mL) | > 500 | – | – | –
O=C(Nc1cccc(Cl)c1)c1cncc(Cl)n1 [Compound 2, 6-Chloropyrazine-2-carboxylic acid (3-chlorophenyl)amide] | – | 262 | 0.373 | 0.7864 | 0.10 | 0.30 | 14 | 125 (≈ 33.5 µg/mL) | 125 (≈ 33.5 µg/mL) | – | – | –
CC(C)(C)c1cnc(C(=O)Nc2cccc(Cl)c2)cn1 [Compound 3, 5-tert-Butylpyrazine-2-carboxylic acid (3-chlorophenyl)amide] | – | 95.5 | 0.373 | 1.0996 | – | – | 0 | > 250 | > 250 | – | – | –
CC(C)(C)c1ncc(C(=O)Nc2cccc(Cl)c2)nc1Cl [Compound 4, 5-tert-Butyl-6-chloropyrazine-2-carboxylic acid (3-chlorophenyl)amide] | – | 101 | 0.373 | 1.4896 | 0.25 | 1.00 | 0 | > 250 | > 250 | – | – | –
O=C(Nc1ccc(Cl)cc1)c1cnccn1 [Compound 5] | – | 1520 | 0.227 | 0.4987 | 0.09 | 0.00 | 4 | > 250 | > 250 | – | – | –
O=C(Nc1ccc(Cl)cc1)c1cncc(Cl)n1 [Compound 6, 6-chloro-N-(4-chlorophenyl)pyrazine-2-carboxamide] | – | 486 | 0.227 | 0.8185 | 0.13 | 0.32 | 65 | > 500 | > 500 | – | – | –
CC(C)(C)c1cnc(C(=O)Nc2ccc(Cl)cc2)cn1 [Compound 7] | – | – | 0.227 | 1.1043 | 0.16 | 0.61 | 0 | > 250 | > 250 | – | – | –
CC(C)(C)c1ncc(C(=O)Nc2ccc(Cl)cc2)nc1Cl [Compound 8, 6-chloro-5-tert-butyl-N-(4-chlorophenyl)pyrazine-2-carboxamide] | – | 43 | 0.227 | 1.5015 | 0.26 | 1.00 | 24 | > 250 | > 250 | – | – | –
O=C(Nc1c(Cl)cccc1Cl)c1cnccn1 [Compound 9, N-(2,6-dichlorophenyl)pyrazine-2-carboxamide] | – | – | 0.40 | 0.6656 | 0.25 | 0.00 | 0 | > 500 | > 500 | – | – | –
O=C(Nc1c(Cl)cccc1Cl)c1cncc(Cl)n1 [Compound 10, 6-Chloro-N-(2,6-dichlorophenyl)pyrazine-2-carboxamide] | – | 829 | 0.40 | 0.9456 | – | – | 0 | > 250 | > 250 | – | – | –
CC(C)(C)c1cnc(C(=O)Nc2c(Cl)cccc2Cl)cn1 [Compound 11, 5-tert-Butyl-N-(2,6-dichlorophenyl)pyrazine-2-carboxamide] | – | 153 | 0.40 | 1.2802 | 0.34 | 0.61 | 0 | 250 (≈ 81.1 µg/mL) | 250 (≈ 81.1 µg/mL) | – | – | –
CC(C)(C)c1ncc(C(=O)Nc2c(Cl)cccc2Cl)nc1Cl [Compound 12, 5-tert-Butyl-6-chloro-N-(2,6-dichlorophenyl)pyrazine-2-carboxamide] | – | 61 | 0.40 | 1.6631 | 0.42 | 1.00 | 0 | 125 (≈ 44.8 µg/mL) | 125 (≈ 44.8 µg/mL) | – | – | –
O=C(Nc1ccc(Cl)c(Cl)c1)c1cnccn1 [Compound 13] | – | – | 0.60 | 0.6962 | 0.30 | 0.00 | 8 | > 250 | > 250 | – | – | –
O=C(Nc1ccc(Cl)c(Cl)c1)c1cncc(Cl)n1 [Compound 14, 6-chloro-N-(3,4-dichlorophenyl)pyrazine-2-carboxamide] | – | 105 | 0.60 | 0.9950 | 0.31 | 0.28 | 61 | 125 (≈ 37.8 µg/mL) | 250 (≈ 75.6 µg/mL) | – | – | –
CC(C)(C)c1cnc(C(=O)Nc2ccc(Cl)c(Cl)c2)cn1 [Compound 15] | – | – | 0.60 | 1.3395 | 0.40 | 0.62 | 15 | 125 (≈ 40.5 µg/mL) | 125 (≈ 40.5 µg/mL) | – | – | –
CC(C)(C)c1ncc(C(=O)Nc2ccc(Cl)c(Cl)c2)nc1Cl [Compound 16, 6-chloro-5-tert-butyl-N-(3,4-dichlorophenyl)pyrazine-2-carboxamide] | – | 130 | 0.60 | 1.7563 | 0.51 | 1.04 | 0 | 62.5 (≈ 22.4 µg/mL) | 62.5 (≈ 22.4 µg/mL) | 62.5 (≈ 22.4 µg/mL) | – | –
CN(C)C(=O)Nc1ccc(Cl)c(Cl)c1 [DCMU, 3-(3,4-dichlorophenyl)-1,1-dimethylurea] | – | – | – | – | – | – | – | – | – | – | ~1.9 µM and 1.9 µM | –
OC(Cn1cncn1)(Cn1cncn1)c1ccc(F)cc1F [FLU, fluconazole, reference compound] | – | – | – | – | – | – | – | 1.95 (≈ 0.597 µg/mL) | 3.91 (≈ 1.2 µg/mL) | – | – | 3.91
O=C(Nc1cccc(C(F)(F)F)c1)c1cnccn1 [N-(3-Trifluoromethylphenyl)pyrazine-2-carboxamide] | 3.13 to 6.25 | – | – | – | – | – | – | – | – | – | – | –
Cc1ccc(NC(=O)c2cnccn2)cc1I [N-(3-iodo-4-methylphenyl)pyrazine-2-carbox-amide] | 3.13 to 6.25 | – | – | – | – | – | – | – | – | – | – | –
